These results are taken from patent publication US20180207294A1, “NON-ALCOHOLIC FATTY LIVER REGULATING FACTOR 14-3-3 PROTEIN” (Korea University Research and Business Foundation, priority 2015, published 2018).

Common to all, as to format: cell-based
One assay concerns HepG2 cells. The assay can be described thus: Triglyceride colorimetric assay, HepG2 cells. As to conditions: 14-3-3 overexpression, 200 μM oleic acid 72 hours, FIG. 10A. The procedure: A triglyceride (neutral fat) is a type of fatty acid and is used as an index of a fat content. A biochemical lipid test was carried out by measuring an amount of triglycerides. HepG2 cells and primary mouse hepatocytes were separately seeded in a 6-well plate at a density of 4×10^5 cells per each well, and then transfected with GFP-14-3-3β DNA (1 μg) or GFP-14-3-3γ DNA (1 μg) and si-14-3-3β (10 μM, Santa Cruz) or si-14-3-3γ (10 μM, Santa Cruz) using an E-fection plus reagent (Lugen). A ratio of DNA to the E-fection plus reagent was 1:2, and this method was performed according to a manufacturer's manual. After transfection, the cells were treated with 200 μM of oleic acid (OA) for 72 hours, and the amount of triglycerides was measured using a triglyceride colorimetric assay kit (Cayman Chemical). The corresponding cells were washed with ice-cold PBS and then scraped using a standard diluent assay reagent, the scrapping process was repeated using a sonicator 20 times to lyse the cells, and the lysed cells were reacted with an enzyme buffer solution for 15 minutes, followed by measurement using an ELISA reader (Bio-Rad Laboratories, Inc) at a wavelength of 550 nm.

The subject of assay [1] is primary mouse hepatocytes. The assay can be described thus: PPARγ2 target gene mRNA (real-time PCR) with 14-3-3 overexpression and oleic acid, primary mouse hepatocytes. The note with it: 14-3-3 overexpression, oleic acid, FIG. 7B. The procedure:
HepG2 cells were seeded in a 6-well plate at a density of 4×10^5 cells per each well, and then transfected with GFP-14-3-3β DNA (4 μg) or GFP-14-3-3γ DNA (4 μg) using an E-fection plus reagent (Lugen). A ratio of DNA to the E-fection plus reagent was 1:2, and this method was performed according to a manufacturer's manual. After transfection, the cells were treated with 200 μM of oleic acid (OA) for 72 hours, and for mRNA extraction, the corresponding cells were lysed with 1 ml/well of TRIzol (Invitrogen), 200 μl of chloroform was added thereto and mixed well, the resultant cells were maintained at room temperature for 5 minutes and then centrifuged at 12,000×g and 4° C. for 15 minutes, the obtained supernatant was mixed with 500 μl of isopropanol and then put on ice for 10 minutes, and the resulting supernatant was centrifuged at 12,000×g and 4° C. for 15 minutes to remove a supernatant, and then pellets were dissolved with tertiary distilled water treated with diethyl pyrocarbonate (DEPC). 2 μg of mRNA was synthesized into cDNA using a Superscript First Strand cDNA Synthesis Kit (Bioneer, Daejeon, South Korea) and the synthesized cDNA as a template was amplified through polymerase chain reaction (PCR) using primers specific to PPARγ2 (SEQ ID NOS: 1 and 2), 14-3-3β (SEQ ID NOS: 3 and 4), 14-3-3γ (SEQ ID NOS: 5 and 6), SREBP-1c, FAT/CD36, and β-actin of humans, and was amplified through real-time PCR using primers specific to SREBP-1c, FAT/CD36, and GAPDH of mice. β-actin and GAPDH were used as controls to see whether mRNAs of the respective cells were compared in the same amount.

A further assay concerns the target T1, PPARγ2 S273A mutant (Homo sapiens, UniProt P37231, S273A).
T1 construct: expressed in transfected cells; host or cells: HEK-293T
T1 sequence (P37231 1-505 S273A): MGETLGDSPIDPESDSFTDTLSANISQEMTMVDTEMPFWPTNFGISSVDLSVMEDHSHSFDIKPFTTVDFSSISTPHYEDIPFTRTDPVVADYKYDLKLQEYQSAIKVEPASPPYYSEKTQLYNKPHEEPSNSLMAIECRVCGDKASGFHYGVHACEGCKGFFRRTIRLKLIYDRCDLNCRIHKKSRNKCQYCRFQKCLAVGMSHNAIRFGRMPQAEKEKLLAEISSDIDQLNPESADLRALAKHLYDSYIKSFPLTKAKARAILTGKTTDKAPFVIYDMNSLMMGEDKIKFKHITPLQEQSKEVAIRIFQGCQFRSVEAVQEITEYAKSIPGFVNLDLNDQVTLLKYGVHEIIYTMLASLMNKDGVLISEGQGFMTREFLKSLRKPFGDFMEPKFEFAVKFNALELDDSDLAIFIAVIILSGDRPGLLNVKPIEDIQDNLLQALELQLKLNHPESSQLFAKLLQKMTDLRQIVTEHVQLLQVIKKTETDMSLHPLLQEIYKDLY
Briefly: aP2 promoter luciferase assay with PPARγ2 S273A mutant (HEK-293T). As to conditions: FIG. 4C, 4D. The protocol:
In addition, HEK-293T cells were seeded in a 12-well plate at a density of 1×10^5 cells per each well, and then transfected with an aP2 promoter construct (0.5 μg), Flag-PPARγ2 (S112A) DNA (0.5 μg) or Flag-PPARγ2 (S273A) DNA (0.5 μg), and mGST-14-3-3β DNA (0.5 μg) or mGST-14-3-3γ DNA (0.5 μg) using an E-fection plus reagent (Lugen). A ratio of DNA to the E-fection plus reagent was 1:2, and this method was performed according to a manufacturer's manual. The corresponding cells were washed with ice-cold PBS, and lysed using 80 μl/well of a reporter lysis buffer (Promega, Madison, Wis.), and the lysed cells were centrifuged at 10,000×g and 4° C. for 10 minutes to collect a supernatant, and luciferase activity was measured. As an instrument, Luminometer 20/20n (Turner Biosystems, Sunnyvale, Calif.) was used. For normalization, the cells were cotransfected with pSV40β-galactosidase. For the collected supernatant, β-galactosidase activity was measured and the luciferase activity was revised, and the obtained values were plotted. At this time, a β-galactosidase enzyme analysis system (Promega, Madison, Wis.) was used, and analysis was performed using a DU530 spectrophotometer (Beckman Instruments, Palo Alto, Calif.).

Consider “14-3-3β: 14-3-3 isoform protein, overexpressed by DNA transfection; regulating factor that increases transcriptional activity of PPARγ2”, for which the triglyceride accumulation entry in the assay with HepG2 cells was “further increased”. Besides, in assay [1], the “mRNA expression of FAT/CD36” value is “further increased” and the “mRNA expression of SREBP-1c” value is on record as “further increased”. Besides, the “change in transcriptional activity of PPARγ2 S273A mutant on 14-3-3 overexpression” value with PPARγ2 S273A mutant is given as “no change”.
Regarding “14-3-3γ: 14-3-3 isoform protein, overexpressed by DNA transfection; regulating factor that decreases transcriptional activity of PPARγ2”, the triglyceride accumulation entry in the assay on HepG2 cells is reported as “reduced triglyceride accumulation”. In assay [1], the “mRNA expression of FAT/CD36” value was “reduced” and the “mRNA expression of SREBP-1c” value was “reduced”. For the same substance, the “change in transcriptional activity of PPARγ2 S273A mutant on 14-3-3 overexpression” value in the assay with PPARγ2 S273A mutant was “no change”.
